What was measured:
Test in all cases: relative viability (nuclei count vs DMSO), 5 days (fraction); higher = more cells survive
[1] = compound: O=C(C[C@H]1NCCC[C@@H]1O)Cn1cnc2cc(Br)c(Cl)cc2c1=O (racemic) [Halofuginone] + Nc1ncn([C@H]2C[C@H](O)[C@@H](CO)O2)c(=O)n1 [Decitabine] (partner 2 µM)
In short: (§1)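 Lung cancer cell lines, seeded in 1536-well plates, were treated the following day by pin tool with a single drug or with five library-drug doses (not always all listed) in √10 steps on top of a fixed anchor-drug dose. Cells were fixed and nuclei stained in one step after 5 days, and nuclei were counted. Relative viability is the nuclei count for treated wells divided by that for vehicle wells, reported as medians of duplicate plates.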

[2] = compound: COc1cc2c(Oc3ccc4[nH]c(C)cc4c3F)ncnc2cc1OCCCN1CCCC1 [Cediranib] + C[C@@H](Oc1cc(-c2cnn(C3CCNCC3)c2)cnc1N)c1c(Cl)ccc(F)c1Cl [Crizotinib] (partner 1 µM)
In short: as §1

[3] = compound: Nc1ncn([C@H]2C[C@H](O)[C@@H](CO)O2)c(=O)n1 [Decitabine] + CC(C)C[C@H](NC(=O)[C@H](Cc1ccccc1)NC(=O)c1cnccn1)B(O)O [Bortezomib] (partner 0.002 µM)
In short: as §1

[4] = compound: O=C(C[C@H]1NCCC[C@@H]1O)Cn1cnc2cc(Br)c(Cl)cc2c1=O (racemic) [Halofuginone] + CS(=O)(=O)CCNCc1ccc(-c2ccc3ncnc(Nc4ccc(OCc5cccc(F)c5)c(Cl)c4)c3c2)o1 [Lapatinib] (partner 2 µM)
In short: as §1

UMC-11
relative viability ([1]; first compound 0.001 µM): 0.646 | relative viability ([1]; first compound 0.003162 µM): 0.848 | relative viability ([1]; first compound 0.01 µM): 0.59 | relative viability ([1]; first compound 0.03162 µM): 0.604 | relative viability ([1]; first compound 0.1 µM): 0.426 | relative viability ([2]; first compound 0.04 µM): 0.612 | relative viability ([2]; first compound 0.1265 µM): 0.573 | relative viability ([2]; first compound 0.4 µM): 0.512 | relative viability ([2]; first compound 1.265 µM): 0.656 | relative viability ([2]; first compound 4 µM): 0.427 | relative viability ([3]; first compound 0.04 µM): 0.681 | relative viability ([3]; first compound 0.1265 µM): 0.58 | relative viability ([3]; first compound 0.4 µM): 0.31 | relative viability ([3]; first compound 1.265 µM): 0.275 | relative viability ([3]; first compound 4 µM): 0.252 | relative viability ([4]; first compound 0.001 µM): 1.02 | relative viability ([4]; first compound 0.003162 µM): 0.997 | relative viability ([4]; first compound 0.01 µM): 0.889 | relative viability ([4]; first compound 0.03162 µM): 0.924 | relative viability ([4]; first compound 0.1 µM): 0.7
